Measurements published in ChEMBL document CHEMBL1134130, “Carbonic anhydrase inhibitors: 4-sulfamoyl-benzenecarboxamides and 4-chloro-3-sulfamoyl-benzenecarboxamides with strong topical antiglaucoma properties” (Bioorg Med Chem Lett, 2001).

Columns and labels:
Carbonic anhydrase 4 [1] = biological target: T1, Carbonic anhydrase 4 (Bos taurus, UniProt Q95323)
T1 sequence (Q95323 whole entry): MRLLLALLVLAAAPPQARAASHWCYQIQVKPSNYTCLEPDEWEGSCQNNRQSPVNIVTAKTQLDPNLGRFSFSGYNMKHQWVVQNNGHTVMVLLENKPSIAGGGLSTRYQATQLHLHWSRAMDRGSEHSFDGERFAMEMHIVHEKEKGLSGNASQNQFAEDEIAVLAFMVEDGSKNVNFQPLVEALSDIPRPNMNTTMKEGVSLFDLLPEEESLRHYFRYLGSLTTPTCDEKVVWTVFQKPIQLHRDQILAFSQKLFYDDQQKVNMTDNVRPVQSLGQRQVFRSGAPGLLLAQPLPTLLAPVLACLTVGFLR
Description: Compound was evaluated for binding affinity against bovine Carbonic anhydrase IV

Carbonic anhydrase 1 = Carbonic anhydrase 1 (Homo sapiens, UniProt P00915)
Description: Binding affinity against human carbonic anhydrase I (hCA I)

Carbonic anhydrase 2 = Carbonic anhydrase 2 (Homo sapiens, UniProt P00918)
Description: Binding affinity against human carbonic anhydrase II (hCA -II)

Carbonic anhydrase 4 [2] = biological target: T1, Carbonic anhydrase 4; remark: listed apart in the source
Description: Compound was evaluated for binding affinity against bovine carbonic anhydrase IV (bCA IV)

Oryctolagus cuniculus [3] = species on record: Oryctolagus cuniculus
Description: In vivo intraocular pressure (IOP) lowering at 90 min in normotensive rabbits after treatment with one drop (50 uL) 2% solution of CA inhibitor directly into the eye, at 7.0 pH

Oryctolagus cuniculus [4] = species on record: Oryctolagus cuniculus; remark: listed apart in the source
Description: Fall of in vivo intraocular pressure (IOP) of glaucomatous rabbits at 60 min after treatment with one drop (50 uL) solution of 2% of CA inhibitor directly into eye

[5] = Compound was evaluated for in vitro corneal permeability in cornea intact; format: ADME, tissue-based
Oryctolagus cuniculus [6] = species on record: Oryctolagus cuniculus; remark: listed apart in the source
Description: In vivo intraocular pressure (IOP) lowering at 30 min in normotensive rabbits after treatment with one drop (50 uL) 2% solution of CA inhibitor directly into the eye, at 7.0 pH

physchem = settings: octanol/water
Description: Partition coefficient (logP)

Oryctolagus cuniculus [7] = species on record: Oryctolagus cuniculus; remark: listed apart in the source
Description: Fall of in vivo intraocular pressure (IOP) of glaucomatous rabbits at 30 min after treatment with one drop (50 uL) solution of 2% of CA inhibitor directly into eye

Oryctolagus cuniculus [8] = species on record: Oryctolagus cuniculus; remark: listed apart in the source
Description: Fall of in vivo intraocular pressure (IOP) of glaucomatous rabbits at 0 min after treatment with one drop (50 uL) solution of 2% of CA inhibitor directly into eye

Oryctolagus cuniculus [9] = species on record: Oryctolagus cuniculus; remark: listed apart in the source
Description: In vivo intraocular pressure (IOP) lowering at 60 min in normotensive rabbits after treatment with one drop (50 uL) 2% solution of CA inhibitor directly into the eye, at 7.0 pH

[10] = Compound was evaluated for in vitro corneal permeability in no epithelium; format: ADME, tissue-based, Cornea
Oryctolagus cuniculus [11] = species on record: Oryctolagus cuniculus; remark: listed apart in the source
Description: Fall of in vivo intraocular pressure (IOP) of glaucomatous rabbits at 120 min after treatment with one drop (50 uL) solution of 2% of CA inhibitor directly into eye

Oryctolagus cuniculus [12] = species on record: Oryctolagus cuniculus; remark: listed apart in the source
Description: In vivo intraocular pressure (IOP) lowering at 120 min in normotensive rabbits after treatment with one drop (50 uL) 2% solution of CA inhibitor directly into the eye, at 7.0 pH

Oryctolagus cuniculus [13] = species on record: Oryctolagus cuniculus; remark: listed apart in the source
Description: Fall of in vivo intraocular pressure (IOP) of glaucomatous rabbits at 90 min after treatment with one drop (50 uL) solution of 2% of CA inhibitor directly into eye

Chain of Carbonic anhydrase 1 (P00915 whole entry): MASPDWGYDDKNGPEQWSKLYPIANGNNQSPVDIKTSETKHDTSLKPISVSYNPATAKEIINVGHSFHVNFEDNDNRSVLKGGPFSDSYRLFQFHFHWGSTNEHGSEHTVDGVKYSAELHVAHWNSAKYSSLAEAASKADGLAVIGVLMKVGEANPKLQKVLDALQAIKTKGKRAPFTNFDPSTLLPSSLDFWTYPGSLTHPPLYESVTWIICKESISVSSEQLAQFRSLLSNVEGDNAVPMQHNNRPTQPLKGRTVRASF

Row | Structure (SMILES) | Ki (Carbonic anhydrase 1) [nM] | Ki (Carbonic anhydrase 2) [nM] | Ki (Carbonic anhydrase 4 [2]) [nM] | other results
1 | NS(=O)(=O)c1ccc(C(=O)NCCC(=O)O)cc1 | 435 | 85 |  | Ki (Carbonic anhydrase 4 [1]): 190 nM
2 | NS(=O)(=O)c1ccc(CCNC(=O)c2ccc(Cl)c(S(N)(=O)=O)c2)cc1 | 21 | 26 | 63 | 
3 | NS(=O)(=O)c1ccc(C(=O)N[C@@H](Cc2cnc[nH]2)C(=O)O)cc1 | 270 | 40 | 125 | 
4 | NS(=O)(=O)c1ccc(C(=O)N[C@@H](Cc2c[nH]cn2)C(=O)N[C@@H](Cc2ccccc2)C(=O)O)cc1 | 240 | 9 | 23 | Delta IOP (Oryctolagus cuniculus [3]): 9.1 mmHg; Delta IOP (Oryctolagus cuniculus [4]): 12 mmHg; Km x10e3 [5]: 2.9 hr-1; Delta IOP (Oryctolagus cuniculus [6]): 4.2 mmHg; logP (physchem): 1.74; Delta IOP (Oryctolagus cuniculus [7]): 7.1 mmHg; Delta IOP (Oryctolagus cuniculus [8]): 0 mmHg; Delta IOP (Oryctolagus cuniculus [9]): 6.5 mmHg; Km x10e3 [10]: 5.8 hr-1; Delta IOP (Oryctolagus cuniculus [11]): 10 mmHg; Delta IOP (Oryctolagus cuniculus [12]): 9.5 mmHg; Delta IOP (Oryctolagus cuniculus [13]): 11 mmHg
5 | NS(=O)(=O)c1ccc(C(=O)NCC(=O)O)cc1 | 500 | 85 |  | Ki (Carbonic anhydrase 4 [1]): 200 nM
6 | C[C@H](NC(=O)c1ccc(S(N)(=O)=O)cc1)C(=O)O | 425 | 79 | 75 | 
7 | NS(=O)(=O)c1ccc(C(=O)N[C@@H](CS)C(=O)O)cc1 | 450 | 110 | 230 | 
8 | NC(=O)C[C@H](NC(=O)c1ccc(S(N)(=O)=O)cc1)C(=O)O | 410 | 72 | 155 | 
9 | NS(=O)(=O)c1cc(C(=O)NCCC(=O)N[C@@H](Cc2cnc[nH]2)C(=O)O)ccc1Cl | 30 | 36 | 50 | 
10 | NS(=O)(=O)c1ccc(C(=O)N[C@@H](CCC(=O)O)C(=O)O)cc1 | 430 | 74 | 160 | 
11 | NS(=O)(=O)c1ccc(C(=O)Nc2nnc(S(N)(=O)=O)s2)cc1 | 35 | 3 | 15 | 
12 | NC(=O)CC[C@H](NC(=O)c1ccc(S(N)(=O)=O)cc1)C(=O)O | 425 | 75 | 160 | 
13 | NS(=O)(=O)c1cc(C(=O)NCC(=O)NCC(=O)O)ccc1Cl | 69 | 85 | 170 | 
14 | CC(C)[C@H](NC(=O)c1ccc(S(N)(=O)=O)cc1)C(=O)O | 420 | 74 | 150 | 
15 | NS(=O)(=O)c1cc(C(=O)N[C@H](C(=O)O)C(O)c2ccccc2)ccc1Cl (stereo partly drawn) | 37 | 62 | 98 | 
16 | C[C@@H](O)[C@H](NC(=O)c1ccc(S(N)(=O)=O)cc1)C(=O)O | 475 | 115 | 350 | 
17 | NS(=O)(=O)c1cc(C(=O)Nc2nnc(S)s2)ccc1Cl | 15 | 11 | 21 | 
18 | NS(=O)(=O)c1ccc(C(=O)NC(C(=O)O)c2ccccc2)cc1 (stereo not drawn) | 250 | 36 | 75 | 
19 | CCC(C)[C@H](NC(=O)c1ccc(S(N)(=O)=O)cc1)C(=O)O (single isomer, unassigned) | 350 | 48 | 86 | 

Row | Structure (SMILES) | Ki (Carbonic anhydrase 1) [nM] | Ki (Carbonic anhydrase 2) [nM] | Ki (Carbonic anhydrase 4 [2]) [nM] | other results
20 | NS(=O)(=O)c1ccc(C(=O)N[C@@H](Cc2ccc(O)cc2)C(=O)O)cc1 | 535 | 45 | 120 | 
21 | NS(=O)(=O)c1ccc(C(=O)N[C@H](C(=O)O)C(O)c2ccccc2)cc1 (stereo partly drawn) | 54 | 21 | 62 | 
22 | NS(=O)(=O)c1ccc(C(=O)N[C@@H](Cc2c[nH]cn2)C(=O)NCC(=O)O)cc1 | 380 | 10 | 19 | 
23 | NS(=O)(=O)c1ccc(CCNC(=O)c2ccc(S(N)(=O)=O)cc2)cc1 |  |  | 13 | Km x10e3 [5]: 2.5 hr-1; logP (physchem): 1.43; Km x10e3 [10]: 6.3 hr-1
24 | NS(=O)(=O)c1ccc(C(=O)N[C@@H](Cc2ccccc2)C(=O)O)cc1 | 560 | 52 | 130 | 
25 | C[C@H](NC(=O)c1ccc(S(N)(=O)=O)cc1)C(=O)N[C@@H](Cc1ccccc1)C(=O)O | 320 | 12 | 24 | 
26 | NS(=O)(=O)c1ccc(C(=O)N[C@@H](CO)C(=O)O)cc1 | 440 | 120 | 325 | 
27 | NS(=O)(=O)c1ccc(NC(=O)c2ccc(Cl)c(S(N)(=O)=O)c2)cc1 | 24 | 30 | 66 | 
28 | NS(=O)(=O)c1ccc(C(=O)N[C@@H](CC(=O)O)C(=O)O)cc1 | 425 | 73 | 150 | 
29 | NS(=O)(=O)c1ccc(C(=O)NC(Cc2ccc(O)c(O)c2)C(=O)O)cc1 (stereo not drawn) | 520 | 43 | 105 | 
30 | NS(=O)(=O)c1cc(C(=O)N[C@@H](Cc2c[nH]cn2)C(=O)NCC(=O)O)ccc1Cl | 41 | 50 | 73 | 
31 | NS(=O)(=O)c1ccc(C(=O)NCC(=O)NCC(=O)O)cc1 | 350 | 42 | 50 | 
32 | NS(=O)(=O)c1cc(C(=O)N[C@@H](Cc2c[nH]cn2)C(=O)N[C@@H](Cc2ccccc2)C(=O)O)ccc1Cl | 27 | 38 | 45 | 
33 | NS(=O)(=O)c1ccc(CNC(=O)c2ccc(Cl)c(S(N)(=O)=O)c2)cc1 | 24 | 28 | 61 | 
34 | CSCC[C@H](NC(=O)c1ccc(S(N)(=O)=O)cc1)C(=O)O | 400 | 66 | 150 | 
35 | NS(=O)(=O)c1ccc(CNC(=O)c2ccc(S(N)(=O)=O)cc2)cc1 | 40 | 7 | 16 | 
36 | NS(=O)(=O)c1ccc(C(=O)NCCC(=O)N[C@@H](Cc2c[nH]cn2)C(=O)O)cc1 | 270 | 16 | 21 | 
37 | NS(=O)(=O)c1ccc(C(=O)NCCCC(=O)O)cc1 | 415 | 73 | 120 | 

Further lines, with some results ahead:

Row | Ki (Carbonic anhydrase 1) [nM] | Ki (Carbonic anhydrase 2) [nM] | Ki (Carbonic anhydrase 4 [2]) [nM] | Structure (SMILES) | other results
38 | 320 | 520 | 735 | C[C@@H](O)[C@H](NC(=O)c1ccc(Cl)c(S(N)(=O)=O)c1)C(=O)O | 
39 | 305 | 340 | 400 | NS(=O)(=O)c1cc(C(=O)N[C@@H](CCC(=O)O)C(=O)O)ccc1Cl | 
40 | 115 | 250 | 325 | NS(=O)(=O)c1cc(C(=O)N[C@@H](Cc2ccc(O)cc2)C(=O)O)ccc1Cl | 
41 | 105 | 160 | 240 | NS(=O)(=O)c1cc(C(=O)N[C@H](C(=O)O)c2ccccc2)ccc1Cl | 
42 | 36 | 44 | 72 | C[C@H](NC(=O)c1ccc(Cl)c(S(N)(=O)=O)c1)C(=O)N[C@@H](Cc1ccccc1)C(=O)O | 
43 | 150 | 280 | 360 | CC[C@H](C)[C@H](NC(=O)c1ccc(Cl)c(S(N)(=O)=O)c1)C(=O)O | 
44 | 135 | 250 | 340 | NS(=O)(=O)c1cc(C(=O)N[C@@H](Cc2ccccc2)C(=O)O)ccc1Cl | 
45 | 240 | 410 | 650 | CSCC[C@H](NC(=O)c1ccc(Cl)c(S(N)(=O)=O)c1)C(=O)O | 
46 | 405 | 53 | 90 | CC(C)C[C@H](NC(=O)c1ccc(S(N)(=O)=O)cc1)C(=O)O | 
47 | 170 | 290 | 395 | NS(=O)(=O)c1cc(C(=O)N[C@@H](CO)C(=O)O)ccc1Cl | 
48 | 205 | 450 | 610 | NS(=O)(=O)c1cc(C(=O)NCCC(=O)O)ccc1Cl | 
49 | 250 | 305 | 410 | NC(=O)CC[C@H](NC(=O)c1ccc(Cl)c(S(N)(=O)=O)c1)C(=O)O | 
50 | 103 | 210 | 350 | NS(=O)(=O)c1cc(C(=O)N[C@@H](Cc2c[nH]cn2)C(=O)O)ccc1Cl | 
51 | 240 | 275 | 330 | NC(=O)C[C@H](NC(=O)c1ccc(Cl)c(S(N)(=O)=O)c1)C(=O)O | 
52 | 39 | 51 | 80 | CC(C)C[C@H](NC(=O)c1ccc(Cl)c(S(N)(=O)=O)c1)C(=O)NCC(=O)O | 
53 | 210 | 450 | 600 | NS(=O)(=O)c1cc(C(=O)NCC(=O)O)ccc1Cl | 
54 | 175 | 420 | 475 | C[C@H](NC(=O)c1ccc(Cl)c(S(N)(=O)=O)c1)C(=O)O | 
55 | 285 | 300 | 355 | NS(=O)(=O)c1cc(C(=O)N[C@@H](CC(=O)O)C(=O)O)ccc1Cl | 
56 | 125 | 305 | 330 | CC(C)C[C@H](NC(=O)c1ccc(Cl)c(S(N)(=O)=O)c1)C(=O)O | 
57 | 100 | 240 | 330 | NS(=O)(=O)c1cc(C(=O)NC(Cc2ccc(O)c(O)c2)C(=O)O)ccc1Cl (stereo not drawn) | 
58 | 130 | 330 | 360 | CC(C)[C@H](NC(=O)c1ccc(Cl)c(S(N)(=O)=O)c1)C(=O)O | 
59 | 300 | 490 | 720 | NS(=O)(=O)c1cc(C(=O)N[C@@H](CS)C(=O)O)ccc1Cl | 
60 | 200 | 400 | 540 | NS(=O)(=O)c1cc(C(=O)NCCCC(=O)O)ccc1Cl | 
